Data taken from patent US20260364214A1, “MULTIVALENT FIBROBLAST ACTIVATION PROTEIN LIGANDS FOR TARGETED DELIVERY APPLICATIONS” (Philochem AG, priority 2022, published 2026).

What was measured:
SK-RC-52.hFAP tumors = assay: Quantitative biodistribution in SK-RC-52.hFAP tumor bearing mice; assay type: in vivo, mouse (female athymic Balb/c AnNRj-Foxn1); conditions: i.v. 250 nmol/kg, 50 MBq/kg
Summary of the method: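 Female athymic Balb/c nude mice carried subcutaneous SK-RC-52.hFAP tumors (5 million cells, ~300 mm^3). 177Lu-labeled conjugates were given i.v. at 250 nmol/kg, 50 MBq/kg. Tissues gamma-counted at several time points as %ID/g±SD, tumor values corrected for growth rate; tumor-to-organ ratios derived.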

[1] = Determination of Log D7.4 (1-octanol/PBS); assay type: physicochemical; conditions: 1-octanol/PBS pH 7.4; 177Lu-labeled
Procedure: The lipophilicity of ^177Lu-ESV6, ^177Lu-Bi-ESV6, ^177Lu-Tri-ESV6 and ^177Lu-FAP-2286 was determined as follows. 100 μL aliquots of the radioligand (~1 MBq) in PBS buffer were added to PBS buffer (500 μL, pH 7.4) and 1-octanol (600 μL). The two-layer mixture were vigorously shaken for 10 minutes on a vortex mixer and then centrifuged at 700 rpm for 5 min to facilitate the separation. 100 μL aliquots of both layers were measured in a Packard Cobra Gamma Counter and the partition coefficient was determined by dividing cpm (octanol) by cpm (PBS) and indicated as Log D7.4. • Log D7.4 (^177Lu-ESV6): −4.13 • Log D7.4 (^177Lu-Bi-ESV6): −3.75 • Log D7.4 (^177Lu-Tri-ESV6): −3.10 • Log D7.4 (^177Lu-FAP-2286): −3.05

## N#CC1CC(F)(F)CN1C(=O)CNC(=O)c1ccnc2c(NC(=O)CCC(=O)NCCCCC(NC(=O)CCC(=O)Nc3cccc4c(C(=O)NCC(=O)N5CC(F)(F)CC5C#N)ccnc34)C(=O)NCCNC(=O)CCC(C(=O)O)N3CCN(CC(=O)[O-])CCN(CC(=O)[O-])CCN(CC(=O)[O-])CC3)cccc12.[177Lu+3] (stereo not shown) [^177Lu-Bi-ESV6-DOTAGA, reference compound]
SK-RC-52.hFAP tumors; 24 h
  Tumor to organs ratio, Blood: 270.81
  Tumor to organs ratio, Heart: 342.92
  Tumor to organs ratio, Intestine: 298.43
  Tumor to organs ratio, Kidney: 14.96
  Tumor to organs ratio, Liver: 48.81
  Tumor to organs ratio, Lung: 184.57
  Tumor to organs ratio, Muscle: 135.38
  Tumor to organs ratio, Spleen: 125.34
  Tumor to organs ratio, Tail: 69.69
SK-RC-52.hFAP tumors; 24 h post injection
  Injected dose per gram, Blood: 0.05 % ID/g
  Injected dose per gram, Heart: 0.05 % ID/g
  Injected dose per gram, Intestine: 0.05 % ID/g
  Injected dose per gram, Kidney: 0.96 % ID/g
  Injected dose per gram, Liver: 0.29 % ID/g
  Injected dose per gram, Lung: 0.08 % ID/g
  Injected dose per gram, Muscle: 0.12 % ID/g
  Injected dose per gram, Spleen: 0.11 % ID/g
  Injected dose per gram, Tail: 0.22 % ID/g
  Injected dose per gram, Tumor: 14.29 % ID/g
SK-RC-52.hFAP tumors; 48 h
  Tumor to organs ratio, Blood: 4240.99
  Tumor to organs ratio, Heart: 1206.24
  Tumor to organs ratio, Intestine: 458.76
  Tumor to organs ratio, Kidney: 17.41
  Tumor to organs ratio, Liver: 51.30
  Tumor to organs ratio, Lung: 300.13
  Tumor to organs ratio, Muscle: 270.58
  Tumor to organs ratio, Spleen: 133.66
  Tumor to organs ratio, Tail: 187.42
SK-RC-52.hFAP tumors; 48 h post injection
  Injected dose per gram, Blood: 0.00 % ID/g
  Injected dose per gram, Heart: 0.01 % ID/g
  Injected dose per gram, Intestine: 0.03 % ID/g
  Injected dose per gram, Kidney: 0.47 % ID/g
  Injected dose per gram, Liver: 0.16 % ID/g
  Injected dose per gram, Lung: 0.03 % ID/g
  Injected dose per gram, Muscle: 0.05 % ID/g
  Injected dose per gram, Spleen: 0.07 % ID/g
  Injected dose per gram, Tail: 0.07 % ID/g
  Injected dose per gram, Tumor: 8.10 % ID/g
SK-RC-52.hFAP tumors; 72 h
  Tumor to organs ratio, Blood: 2515.44
  Tumor to organs ratio, Heart: 203.58
  Tumor to organs ratio, Intestine: 544.57
  Tumor to organs ratio, Kidney: 12.21
  Tumor to organs ratio, Liver: 28.14
  Tumor to organs ratio, Lung: 517.13
  Tumor to organs ratio, Muscle: 140.83
  Tumor to organs ratio, Spleen: 61.08
  Tumor to organs ratio, Tail: 64.13
SK-RC-52.hFAP tumors; 72 h post injection
  Injected dose per gram, Blood: 0.00 % ID/g
  Injected dose per gram, Heart: 0.04 % ID/g
  Injected dose per gram, Intestine: 0.06 % ID/g
  Injected dose per gram, Kidney: 0.66 % ID/g
  Injected dose per gram, Liver: 0.29 % ID/g
  Injected dose per gram, Lung: 0.06 % ID/g
  Injected dose per gram, Muscle: 0.08 % ID/g
  Injected dose per gram, Spleen: 0.14 % ID/g
  Injected dose per gram, Tail: 0.12 % ID/g
  Injected dose per gram, Tumor: 8.00 % ID/g
[1]
  Log D7.4: −3.75
